How the values were obtained:
[1] = target: interaction between PD-1 and PD-L1 expressed on cell surfaces (Homo sapiens (Human), UniProt Q9NZQ7); assay: Jurkat reporter gene cellular assay (Jurkat/NF-κB-luc/PD1 cells cocultured with Raji-PD-L1 cells, OKT-3 stimulation); format: cell-based; conditions: NF-κB-luc reporter activation fold, 6 hrs; read-out: Cell Activity EC50
Experimental: B. Jurkat Reporter Gene Cellular Assay
The effect of compounds of the examples of the present invention and positive compounds on the interaction between PD-1 and PD-L1 expressed on cell surfaces, and the related influence on T cell functions, were determined by a Jurkat reporter gene cellular assay.
Briefly, the reporter gene plasmid of NF-κB-luc and the plasmid of human PD-1 were transfected into Jurkat cells to establish a stably transfected cell line capable of stably expressing both PD-1 and NF-κB-Luc reporter genes; the expression level of PD-1 on the cell surface was confirmed by flow cytometry: and the expression of the reporter gene was confirmed via the response of the reporter gene stimulated by OKT-3 and Raiji cells.
In addition, the plasmid of human PD-L1 was transfected into Raji cells to obtain a cell line capable of stably expressing PD-L1. Jurkat/NF-κB-luc/PD1 cells and Raji-PD-L1 cells were then cocultured and stimulated with OKT-3. On this basis, the compounds were added, and the enhancement of the signal pathway of T cell activation by the inhibitory effect of the compounds on the interaction between PD-1 and PD-L1 was evaluated by readings of reporter gene responses. The specific experimental process was as follows:
2. 20 μL of Raji-PD-L1 cell suspension was added to each well with 5*10^4 cells for each well, and was incubated in an incubator for 20 min;
3. 20 μL of Jurkat/NF-κb-luc/PD-1 cell suspension was added to each well with 5*10^4 cells for each well, and well mixed, and 6 hrs later, Bright-glo (Promega, E2620) was applied and plates were read on Envision;
4. the reading of each well treated with the compound was compared with the reading of each well treated with DMSO to obtain the activation fold of the compound; and
5. EC50 values of compounds and positive compounds of the examples of the present invention were determined by non-linear regression analysis of activation folds at different compound concentrations.

[2] = target: interaction between PD-1 and PD-L1 (Homo sapiens (Human), UniProt Q9NZQ7); assay: PD1-PDL1 HTRF binding activity test (Cisbio PD-1/PD-L1 binding assay kit); conditions: read-out: PD1-PDL1 HTRF Binding Activity IC50
Experimental: A. PD1-PDL1 HTRF Binding Activity Test
The effect of compounds and positive compounds of the examples of the present invention on the interaction between PD-1 and PD-L1 was determined by the PD-1/PD-L1 binding assay kit from Cisbio (#64ICP01PEG or 64ICP01PEH). The detailed experimental process was as follows:
1. Pre-diluted compound solution, 4 μL of Tag1-PD-L1 and 4 μL of Tag2-PD1 were added to each well of a 384-well plate;
3. After incubated for 2 hrs at room temperature or overnight at 4° C., plates were read on Envision of Pelkin Elmer; and readings at 665 nm and 620 nm were recorded, and the ratio of the two readings was taken as a reading for each well;
4. The reading of each well after compound treatment was compared with the reading of DMSO treated wells to obtain the percent inhibition of the compound; and
5. IC50 values of compounds and positive compounds of the examples of the present invention were determined by non-linear regression analysis of percent inhibition at different compound concentrations.

Chain of interaction between PD-1 and PD-L1 expressed on cell surfaces (Q9NZQ7 19-290): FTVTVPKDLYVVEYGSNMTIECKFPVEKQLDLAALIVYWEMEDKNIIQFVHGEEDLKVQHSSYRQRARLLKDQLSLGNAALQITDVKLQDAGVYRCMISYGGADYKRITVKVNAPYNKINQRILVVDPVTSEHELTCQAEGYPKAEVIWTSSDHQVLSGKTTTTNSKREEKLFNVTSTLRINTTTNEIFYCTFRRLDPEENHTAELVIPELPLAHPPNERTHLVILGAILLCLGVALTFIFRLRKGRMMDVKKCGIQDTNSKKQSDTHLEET
Chain of interaction between PD-1 and PD-L1 (Q9NZQ7 19-238): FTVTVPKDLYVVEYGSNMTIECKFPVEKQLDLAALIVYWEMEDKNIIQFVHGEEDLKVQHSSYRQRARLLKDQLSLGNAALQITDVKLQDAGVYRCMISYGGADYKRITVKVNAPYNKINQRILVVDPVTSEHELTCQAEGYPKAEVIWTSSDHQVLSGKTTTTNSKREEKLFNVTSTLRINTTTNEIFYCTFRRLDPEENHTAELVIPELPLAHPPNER

SMILES | EC50 [1] [nM] | IC50 [2] [nM]
COc1cc(C(=O)Nc2cccc(-c3cccc(NC(=O)c4cc(OC)c(CN[C@H](CO)C(=O)O)cn4)c3C)c2C)ncc1CN[C@H](CO)C(=O)O [Example 2, (2R,2′R)-2,2′-((((((2,2′-dimethyl-[1,1′-biphenyl]-3,3′-diyl)bis (azanediyl))bis(carbonyl))bis(4-methoxypyridine-6,3-diyl))bis(methylene))bis (azanediyl))bis(3-hydroxypropanoic acid)] | 109 | 0.18
Cc1c(NC(=O)c2ccc(CN[C@H](CO)C(=O)O)cn2)cccc1-c1cccc(NC(=O)c2ccc(CN[C@H](CO)C(=O)O)cn2)c1C [Example 6, (2R,2′R)-2,2′-((((((2,2′-dimethyl[1,1′-biphenyl]-3,3′-diyl)bis(azanediyl))bis(carbonyl))bis(pyridine-6,3-diyl))bis(methylene))bis(azanediyl))bis (3-hydroxypropanoic acid)] | 658 | 0.79
COCCNCc1cnc(C(=O)Nc2cccc(-c3cccc(NC(=O)c4cc(C)c(CNCCOC)cn4)c3C)c2C)cc1C [Example 7, N,N′-(2,2′-dimethyl-[1,1′-biphenyl]-3,3′-diyl)bis(5-(((2-methoxyethyl)amino)methyl)-4-methylpicolinamide)] | 139 | 0.096
Cc1cc(C(=O)Nc2cccc(-c3cccc(NC(=O)c4cc(C)c(CN5CCOCC5)cn4)c3C)c2C)ncc1CN1CCOCC1 [Example 9, N,N′-(2,2′-dimethyl-[1,1′-biphenyl]-3,3′-diyl)bis(4-methyl-5-(morpholinomethyl)picolinamide)] | > 10000 | 3.8
Cc1cc(C(=O)Nc2cccc(-c3cccc(NC(=O)c4cc(C)c(CNCC5(O)CC5)cn4)c3C)c2C)ncc1CNCC1(O)CC1 [Example 10, N,N′-(2,2′-dimethyl-[1,1′-biphenyl]-3,3′-diyl)bis(5-((((1-hydroxycyclopropyl)methyl)amino)methyl)-4-methylpicolinamide)] | 50 | 0.28

Results, then the compound that gave them:

EC50 [1] [nM] | IC50 [2] [nM] | SMILES
134 | 0.6 | Cc1cc(C(=O)Nc2cccc(-c3cccc(NC(=O)c4cc(C)c(CN5CC(C)(O)C5)cn4)c3C)c2C)ncc1CN1CC(C)(O)C1 [Example 11, N,N′-(2,2′-dimethyl-[1,1′-biphenyl]-3,3′-diyl)bis(5-((3-hydroxy-3-methylazetidin-1-yl)methyl)-4-methylpicolinamide)]
594 | 1.9 | Cc1cc(C(=O)Nc2cccc(-c3cccc(NC(=O)c4cc(C)c(CN5CCCC5)cn4)c3C)c2C)ncc1CN1CCCC1 [Example 12, N,N′-(2,2′-dimethyl-[1,1′-biphenyl]-3,3′-diyl)bis(4-methyl-5-(pyrrolidin-1-ylmethyl)picolinamide)]
109 | 0.13 | Cc1cc(C(=O)Nc2cccc(-c3cccc(NC(=O)c4cc(C)c(CN5CC[C@@H](O)C5)cn4)c3C)c2C)ncc1CN1CC[C@@H](O)C1 [Example 13, N,N′-(2,2′-dimethyl-[1,1′-biphenyl]-3,3′-diyl)bis(5-(((R)-3-hydroxypyrrolidin-1-yl)methyl)-4-methylpicolinamide)]
– | 227 | Cc1cc(C(=O)Nc2cccc(-c3cccc(NC(=O)c4cc(C)c(CN5CCC(F)(F)C5)cn4)c3C)c2C)ncc1CN1CCC(F)(F)C1 [Example 14, N,N′-(2,2′-dimethyl-[1,1′-biphenyl]-3,3′-diyl)bis(5-((3,3-difluoropyrrolidin-1-yl)methyl)-4-methylpicolinamide)]
511 | 0.83 | Cc1cc(C(=O)Nc2cccc(-c3cccc(NC(=O)c4cc(C)c(CNC5CC5)cn4)c3C)c2C)ncc1CNC1CC1 [Example 15, N,N′-(2,2′-dimethyl-[1,1′-biphenyl]-3,3′-diyl)bis(5-((cyclopropylamino)methyl)-4-methyipicolinamide)]
– | 0.36 | COc1cc(C(=O)Nc2cccc(-c3cccc(NC(=O)c4cc(OC)c(CN5CC6(CCO6)C5)cn4)c3C)c2C)ncc1CN1CC2(CCO2)C1 [Example 57]
